Source: patent US20130324522A1, “INSECT ODORANT RECEPTOR ANTAGONISTS” (THE ROCKEFELLER UNIVERSITY, priority 2010, published 2013)
Read-outs that look alike come from different tables or passages of the source.

How the values were obtained:
[1] = target: OR28/OR7 (Anopheles gambiae, UniProt A0A1S4GFY3+Q7QCC7); experiment: Ca2+-imaging of stable HEK293T cell line OR28/OR7; assay type: cell-based; conditions: for inhibition at 4 µM: HEK-293T, read-out: Percent Inhibition OR28 OR7
Protocol: Full-length cDNAs for mosquito (Anopheles gambiae) odorant receptor (OR1, OR2, OR7, OR8, OR28), and fly (Drosophila melanogaster) odorant receptor (Or47a, Or83b), mouse TRP channel (TRPM8), and mouse serotonin receptor (5HT3) were obtained and subcloned into mammalian expression vectors. The following mammalian expression vectors were used:
(§1) Stable cell lines OR1/OR7, OR2/OR7, OR8/OR7, OR10/OR7, OR28/OR7 and TRPM8 were generated from HEK293T cells. HEK293T-based cell lines were cultured in DMEM supplemented with these additional antibiotics: 6 μg/mL blasticidin and 1 μg/mL puromycin, with the exception of the TRPM8 cell lines, which was cultured in DMEM supplemented with 1 μg/mL puromycin.
Cells were trypsinized and split into 35 mm dishes one day before transfection. Confluent cells (60-70%) in 35 mm dishes were transfected with 1 μg of insect OR(X) plasmids in pME18s-bla and 1 μg of OR7-pME18s-puro using lipofectamine 2000. For Anopheles odorant receptors, two plasmids were co-transfected into HEK cells: the ligand-specific receptor (OR1, OR2, OR8, OR28) and the corresponding olfactory co-receptor: OR7. Cell lines containing TRPM8 were transfected with single plasmid.
(§2) Stable cell lines were cultured in 10 cm dishes, and confluent cells (70-80%) were trypsinized. 10,000 cells/20 μL were transferred into each well of 384-well plates coated with poly-D-lysine, and cultured for 2 days. For Flip-In T-Rex cells (cell lines expressing Or47a/Or83b and 5HT3), 5 μL of tetracycline (5 μg/mL) were added 1 day before the assay. 20 μL of Ca-4 dye was loaded into each well for 1.5 hr at room temperature in the dark, and the dye-loaded plates were subjected to Ca^2+-imaging using a Hamamatsu FDSS6000 real time fluorescence plate reader. Odorant solutions (9× final concentration) were prepared by dissolving 1M stock solutions into Hank's Buffered Salt Solution (HBSS), and 30 μL of odor solution was transferred to each well in 384-well plates.
(§3) Compounds ([…] in DMSO) were stored in 384-well plates, and last two columns (32 wells total) contained only DMSO. 200 nL of small compounds were transferred into the odorant plates before the assay using the Perkin-Elmer Janus workstation. The odorant plates were spun down to remove air bubbles, and placed on the FDSS6000 plate loader, and 5 μL of odorant solution was applied to the cell plate on the FDSS6000. Ca^2+ increase was monitored with fluorescence at 525 nm by excitation at 485 nm.

[2] = target: OR10/OR7 (Anopheles gambiae, UniProt B5U0U7+Q7QCC7); experiment: Ca2+-imaging of stable HEK293T cell line OR10/OR7; assay type: cell-based; conditions: for inhibition at 4 µM: HEK-293T, read-out: Percent Inhibition OR10 OR7
Protocol: as §1
After one day of incubation, the transfected cells were transferred into 10 cm dishes with DMEM containing antibiotics as follows: • 0.5 μg/mL of blasticidin for OR1/OR7, OR2/OR7, OR8/OR7, OR10/OR7, OR28/OR7 • 0.2 μg/mL of puromycin for TRPM8.
as §2, §3

Sequence of OR10/OR7 (Q7QCC7 whole entry): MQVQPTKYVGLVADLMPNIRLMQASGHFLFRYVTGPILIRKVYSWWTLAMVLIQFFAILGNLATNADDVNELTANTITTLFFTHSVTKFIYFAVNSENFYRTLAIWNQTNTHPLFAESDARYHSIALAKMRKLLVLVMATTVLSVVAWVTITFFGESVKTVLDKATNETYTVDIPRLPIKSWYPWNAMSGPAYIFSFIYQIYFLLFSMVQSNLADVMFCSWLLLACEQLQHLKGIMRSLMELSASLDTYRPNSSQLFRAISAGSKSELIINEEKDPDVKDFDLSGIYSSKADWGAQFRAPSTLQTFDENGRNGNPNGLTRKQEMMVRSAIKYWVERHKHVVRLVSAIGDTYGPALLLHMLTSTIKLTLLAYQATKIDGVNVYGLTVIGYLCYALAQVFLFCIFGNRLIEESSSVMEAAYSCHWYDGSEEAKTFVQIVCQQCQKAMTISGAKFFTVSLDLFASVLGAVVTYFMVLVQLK
Sequence of OR10/OR7 (B5U0U7 entry or part of it): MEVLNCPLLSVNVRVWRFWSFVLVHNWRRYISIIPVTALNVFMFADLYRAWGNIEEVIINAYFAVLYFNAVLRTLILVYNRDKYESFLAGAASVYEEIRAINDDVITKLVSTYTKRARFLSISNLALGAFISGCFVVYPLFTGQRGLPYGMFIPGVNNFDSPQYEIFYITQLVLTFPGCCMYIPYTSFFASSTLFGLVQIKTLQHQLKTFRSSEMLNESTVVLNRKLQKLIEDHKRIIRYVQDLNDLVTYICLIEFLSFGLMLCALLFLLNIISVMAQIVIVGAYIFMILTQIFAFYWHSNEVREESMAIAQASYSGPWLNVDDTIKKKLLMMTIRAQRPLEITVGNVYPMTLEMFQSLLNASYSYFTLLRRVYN
Sequence of OR28/OR7 (A0A1S4GFY3 entry or part of it): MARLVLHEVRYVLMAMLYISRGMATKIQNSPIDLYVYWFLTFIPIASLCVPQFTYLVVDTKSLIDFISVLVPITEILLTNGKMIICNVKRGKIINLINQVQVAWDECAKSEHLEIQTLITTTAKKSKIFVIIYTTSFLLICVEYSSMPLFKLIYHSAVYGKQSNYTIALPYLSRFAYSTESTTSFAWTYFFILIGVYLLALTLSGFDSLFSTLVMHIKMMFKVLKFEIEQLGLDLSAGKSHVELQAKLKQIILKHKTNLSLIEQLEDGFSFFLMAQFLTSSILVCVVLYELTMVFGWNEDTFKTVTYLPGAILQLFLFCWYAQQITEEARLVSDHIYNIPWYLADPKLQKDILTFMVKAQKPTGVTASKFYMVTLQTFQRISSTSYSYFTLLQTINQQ
Sequence of OR28/OR7 (Q7QCC7 whole entry): as the sequence (Q7QCC7 whole entry) above

Compound | inhibition at 4 µM ([1]; compound applied at 4 μM) [%] | IC50 ([1]; Table B, read-out: IC50 OR28) [nM] | inhibition at 4 µM ([2]; compound applied at 4 μM) [%] | IC50 ([2]; Table B, read-out: IC50 OR10) [nM] | IC50 [1] [nM] | inhibition at 4 µM [1] [%] | IC50 [2] [nM] | inhibition at 4 µM [2] [%]
COc1ccc(-n2c(Cc3ccccc3)nnc2SCCCC(=O)N2CCN(C(=O)c3ccc(C(F)(F)F)cc3)C(C)C2)cc1 (centres unmarked) [RU-0071828] | > 75 | < 100 | 26 to 50 | > 1000 |  |  |  | 
O=C(NCCC(=O)N1CCOC(COCc2ccc(F)cc2Cl)C1)OCc1ccccc1 (centres unmarked) [RU-0050344] | > 75 | < 100 | 26 to 50 |  |  |  |  | 
COCCN(Cc1c(-c2ccccc2)noc1N1CCSCC1)CC(O)COCc1ccco1 (centres unmarked) [RU-0037278] | > 75 | < 100 | 26 to 50 |  |  |  |  | 
COc1ccccc1CC(=O)N1CCOC(COc2ccc(C)cc2)C1 (centres unmarked) [RU-0050390] | > 75 | < 100 | < 25 |  |  |  |  | 
O=C(C1CCC1)N(Cc1ccco1)Cc1nccn1Cc1ccccc1Cl [RU-0048066] | > 75 | < 100 | 51 to 74 | < 100 |  |  |  | 
Cc1ccccc1C(=O)N[C@@H]1CCCCC1NC(=O)C1CCN(C(=O)C23CC4CC(CC(C4)C2)C3)CC1 (some centres unmarked) [RU-0045351] | > 75 | < 100 | < 25 |  |  |  |  | 
CCn1c(C)c(C(=O)CN(CC2CCCO2)C(=O)C2C[C@H]2c2ccccc2)c(C)c1C(=O)OC (some centres unmarked) [RU-0071273] | > 75 | < 100 | 51 to 74 | < 100 |  |  |  | 
C=CCN(Cc1nccn1Cc1ccccc1F)C(=O)C1CCCC1 [RU-0058964] | > 75 | < 100 | > 75 | < 100 |  |  |  | 
CCN(CC)C(=O)Oc1ccc2c(ccn2Cc2ccccc2Cl)c1NC(=O)CCCCC(=O)OC [RU-0075446] |  |  |  |  | < 100 | > 75 | < 100 | > 75
COc1ccc(OCC(=O)N2CCOC(Cc3ccccc3)C2)cc1 (centres unmarked) [RU-0050384] | > 75 | 100 to 1000 | < 25 |  |  |  |  | 
Cc1c(C(=O)NCc2ccco2)cnn1-c1ccccc1 [RU-0047765] | > 75 | < 100 | 51 to 74 | < 100 |  |  |  | 
COCCCN(Cc1c(-c2ccccc2)noc1N1CCC(C)CC1)C(=O)c1ccccc1F [RU-0036876] | > 75 | < 100 | < 25 |  |  |  |  | 
O=C(c1ccco1)N(Cc1nccn1Cc1c(F)cccc1Cl)C1CC1 [RU-0048046] | > 75 | < 100 | 51 to 74 | < 100 |  |  |  | 
C=CCOc1cccc(C(=O)N2CCCC(C(=O)c3ccccc3OC)C2)c1 (centres unmarked) [RU-0029409] | > 75 | < 100 | 26 to 50 |  |  |  |  | 
CCN(CC)C(=O)Oc1ccc2c(ccn2Cc2ccc(Cl)cc2)c1NC(=O)C1CC1 [RU-0075475] |  |  |  |  | > 1000 | > 75 | < 100 | > 75
COCCCN(Cc1c(-c2ccccc2)noc1N1CCCC1)C(=O)c1ccc(F)cc1 [RU-0037386] | > 75 | < 100 | 26 to 50 |  |  |  |  | 
CCN(C)c1onc(-c2ccccc2)c1CN(CCCOC)C(=O)c1ccco1 [RU-0051926] | > 75 | > 1000 | 26 to 50 |  |  |  |  | 
O=C(c1ccco1)N(Cc1nccn1Cc1ccccc1Cl)CC1CC1 [RU-0047281] | > 75 | < 100 | > 75 |  |  |  |  | 
CC(C)N(Cc1nccn1Cc1c(F)cccc1Cl)C(=O)c1ccc(Cl)cc1 [RU-0055364] | > 75 | < 100 | > 75 | 100 to 1000 |  |  |  | 
CN(C)c1ccc(C(=O)N2CCOC(COCc3ccccc3F)C2)cc1 (centres unmarked) [RU-0050325] | > 75 | < 100 | < 25 |  |  |  |  | 

Compound | inhibition at 4 µM ([1]; compound applied at 4 μM) [%] | IC50 ([1]; Table B, read-out: IC50 OR28) [nM] | inhibition at 4 µM ([2]; compound applied at 4 μM) [%] | IC50 ([2]; Table B, read-out: IC50 OR10) [nM] | IC50 [1] [nM] | inhibition at 4 µM [1] [%] | IC50 [2] [nM] | inhibition at 4 µM [2] [%]
O=C(Cc1cccc(F)c1)N1CCOC(COCc2c(Cl)cccc2Cl)C1 (centres unmarked) [RU-0050398] | > 75 | 100 to 1000 | < 25 |  |  |  |  | 
COCCCN(Cc1c(-c2ccccc2)noc1N(C)C(C)C)C(=O)c1ccccc1OC [RU-0037003] | > 75 | < 100 | < 25 |  |  |  |  | 
CC(C)CN(Cc1nccn1Cc1ccc(Cl)cc1Cl)C(=O)c1ccccc1F [RU-0055322] | > 75 | < 100 | 51 to 74 | < 100 |  |  |  | 
Cc1ccccc1C(=O)N[C@@H]1CCCCC1NC(=O)C1CCCN(S(=O)(=O)c2cc(Cl)ccc2Cl)C1 (some centres unmarked) [RU-0045691] | > 75 | < 100 | 26 to 50 |  |  |  |  | 
CC(=O)OCC(=O)NCC1Cc2cc(Oc3ccccc3)ccc2O1 (centres unmarked) [RU-0079120] | > 75 | < 100 | > 75 | < 100 |  |  |  | 
CCc1cc(N2CCCC2)nc(SCc2ccc(C(=O)N3CCOCC3)o2)n1 [RU-0047568] | > 75 | < 100 | > 75 | < 100 |  |  |  | 
Cc1cc(N(C)C2CCCCC2)nc(SCc2cccc(C(=O)N3CCCC3)c2)n1 [RU-0034108] | 26 to 50 |  | 26 to 50 |  |  |  |  | 
c1ccc(CNc2nc(NCc3ccco3)nc(N3CCOCC3)n2)cc1 [RU-0020050] | > 75 | 100 to 1000 | < 25 |  |  |  |  | 
O=C(c1c(F)c(F)cc(F)c1F)N1CCOC(Cc2ccccc2)C1 (centres unmarked) [RU-0050393] | > 75 | < 100 | 51 to 74 | > 1000 |  |  |  | 
COc1ccccc1CCC(=O)N1CCC(CCC(=O)Nc2ccccc2)CC1 [RU-0032455] | > 75 | < 100 | < 25 |  |  |  |  | 
CCOC(=O)CCC(=O)N(CCc1ccccc1)CC(=O)Nc1cc(C(C)(C)C)nn1-c1ccccc1C [RU-0072462] | > 75 | < 100 | 26 to 50 |  |  |  |  | 
CCOC(=O)C1CCCN(C(=O)c2csc(CSc3nnc(-c4cccc(OC)c4)n3-c3ccc(C)cc3)n2)C1 (centres unmarked) [RU-0071628] | > 75 | < 100 | < 25 |  |  |  |  | 
COc1ccccc1C(=O)C1CCCN(C(=O)c2cccc(N3CCOCC3)c2)C1 (centres unmarked) [RU-0029350] | > 75 | 100 to 1000 | 51 to 74 | > 1000 |  |  |  | 
C=CCN(Cc1nccn1Cc1ccccc1F)C(=O)c1cccc(F)c1 [RU-0058232] | > 75 | < 100 | > 75 | < 100 |  |  |  | 
C=CCN(Cc1nccn1Cc1ccc(Cl)c(Cl)c1)C(=O)c1ccccc1F [RU-0047955] | > 75 | < 100 | > 75 | < 100 |  |  |  | 
C=CCNC(=O)C(NC(=O)c1cccc(C)c1)C1CCN(C(=O)c2cccc(Br)c2)CC1 (centres unmarked) [RU-0039123] | > 75 | < 100 | 26 to 50 |  |  |  |  | 
C=CCN(Cc1nccn1Cc1ccccc1C)C(=O)CC(C)C [RU-0058298] | > 75 | < 100 | > 75 | < 100 |  |  |  | 
Cc1ccccc1C(=O)N[C@@H]1CCCCC1NC(=O)C1CCN(C(=O)c2ccc(C(C)(C)C)cc2)CC1 (some centres unmarked) [RU-0045678] | > 75 | < 100 | > 75 | > 1000 |  |  |  | 
CCN(CC)C(=O)Oc1ccc2c(ccn2Cc2cccc(C)c2)c1NC(=O)CCCCC(=O)OC [RU-0075445] |  |  |  |  | < 100 | > 75 |  | < 25
